Results from PubChem BioAssay AID1845210 (Molecular Pharmacology Branch, DTP, NCI, 2023).
Values joined by “and” are separate entries in the source; they are usually repeats but may differ in a detail not shown here. Equal values may be shown once.

Test system: NCI-H226 complex tumor spheroids, viability
Assay: Anticancer human tumor NCI-H226 cell line growth inhibition;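 also: spheroids exposed to compound for 7 days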
Details: for viability, T/C: stronger effect = lower value; active = viability on the fitted dose curve at most 10% of control; inactive = the rest
Summary of the method: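 Complex spheroids of malignant cells with endothelial cells and mesenchymal stem cells; agents alone or combined, from near clinical Cmax (or 10 microM if unknown) down in half-log steps, 0.25% DMSO final.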

COc1ccc([C@@H](O)c2cc(-c3ncnc4cc(N5CCOCC5)ccc34)c(F)cc2Cl)nn1 + CC[C@@]1(O)C(=O)OCc2c1cc1n(c2=O)Cc2cc3c(CN(C)C)c(O)ccc3nc2-1
inactive: viability, T/C (second compound 0.003 µM, first compound 0.0316 µM) 98.2% | viability, T/C (second compound 0.003 µM, first compound 0.1 µM) 96.3% | viability, T/C (second compound 0.003 µM, first compound 0.316 µM) 88.3% | viability, T/C (second compound 0.003 µM, first compound 1 µM) 71.1% | viability, T/C (second compound 0.003 µM, first compound 3.16 µM) 56.7% | viability, T/C (second compound 0.003 µM, first compound 10 µM) 34.7% | viability, T/C (second compound 0.00949 µM, first compound 0.0316 µM) 87.8% | viability, T/C (second compound 0.00949 µM, first compound 0.1 µM) 98.7% | viability, T/C (second compound 0.00949 µM, first compound 0.316 µM) 90.6% | viability, T/C (second compound 0.00949 µM, first compound 1 µM) 74.5% | viability, T/C (second compound 0.00949 µM, first compound 3.16 µM) 48.9% | viability, T/C (second compound 0.00949 µM, first compound 10 µM) 35.2% | viability, T/C (second compound 0.03 µM, first compound 0.0316 µM) 79.6% | viability, T/C (second compound 0.03 µM, first compound 0.1 µM) 81.7% | viability, T/C (second compound 0.03 µM, first compound 0.316 µM) 75.6% | viability, T/C (second compound 0.03 µM, first compound 1 µM) 57.1% | viability, T/C (second compound 0.03 µM, first compound 3.16 µM) 44.1% | viability, T/C (second compound 0.03 µM, first compound 10 µM) 30.2% | viability, T/C (second compound 0.0949 µM, first compound 0.0316 µM) 90.4% | viability, T/C (second compound 0.0949 µM, first compound 0.1 µM) 83.1% | viability, T/C (second compound 0.0949 µM, first compound 0.316 µM) 74.8% | viability, T/C (second compound 0.0949 µM, first compound 1 µM) 65.2% | viability, T/C (second compound 0.0949 µM, first compound 3.16 µM) 44.8% | viability, T/C (second compound 0.0949 µM, first compound 10 µM) 30.3% | viability, T/C (second compound 0.3 µM, first compound 0.0316 µM) 68.1% | viability, T/C (second compound 0.3 µM, first compound 0.1 µM) 73.2% | viability, T/C (second compound 0.3 µM, first compound 0.316 µM) 65.9% | viability, T/C (second compound 0.3 µM, first compound 1 µM) 55.8% | viability, T/C (second compound 0.3 µM, first compound 3.16 µM) 39.8% | viability, T/C (second compound 0.3 µM, first compound 10 µM) 30.8%
1.52 µM: IC50 (curve of first compound, second compound 0.3 µM)
4.24 µM: IC50 (curve of first compound, second compound 0.003 µM)
1.88 µM: IC50 (curve of first compound, second compound 0.03 µM)
2.92 µM: IC50 (curve of first compound, second compound 0.00949 µM)
2.48 µM: IC50 (curve of first compound, second compound 0.0949 µM)

O=C(c1cc(Cc2n[nH]c(=O)c3ccccc23)ccc1F)N1CCN(C(=O)C2CC2)CC1
inactive: viability, T/C (compound 0.0949 µM) 98.6% and 105% and 103% | viability, T/C (compound 0.3 µM) 97.1% and 100% and 96.8% | viability, T/C (compound 0.949 µM) 104% (2×) and 101% | viability, T/C (compound 3 µM) 98.5% and 99.3% and 93.9% | viability, T/C (compound 9.49 µM) 96.9% and 87.4% and 106% | viability, T/C (compound 30 µM) 92.1% and 79% and 86.7%
> 30 µM: IC50 (curve of compound)

COc1ccc([C@@H](O)c2cc(-c3ncnc4cc(N5CCOCC5)ccc34)c(F)cc2Cl)nn1 + Cn1nnc2c(C(N)=O)ncn2c1=O
4.53 µM: IC50 (curve of first compound, second compound 100 µM)
2.97 µM: IC50 (curve of first compound, second compound 3.16 µM)
3.69 µM: IC50 (curve of first compound, second compound 31.6 µM)
4.71 µM: IC50 (curve of first compound, second compound 1 µM)
inactive: viability, T/C (second compound 1 µM, first compound 0.0316 µM) 94.3% | viability, T/C (second compound 1 µM, first compound 0.1 µM) 100% | viability, T/C (second compound 1 µM, first compound 0.316 µM) 89% | viability, T/C (second compound 1 µM, first compound 1 µM) 66.8% | viability, T/C (second compound 1 µM, first compound 3.16 µM) 60.8% | viability, T/C (second compound 1 µM, first compound 10 µM) 37.5% | viability, T/C (second compound 3.16 µM, first compound 0.0316 µM) 95.2% | viability, T/C (second compound 3.16 µM, first compound 0.1 µM) 101% | viability, T/C (second compound 3.16 µM, first compound 0.316 µM) 92.2% | viability, T/C (second compound 3.16 µM, first compound 1 µM) 67.9% | viability, T/C (second compound 3.16 µM, first compound 3.16 µM) 52.1% | viability, T/C (second compound 3.16 µM, first compound 10 µM) 38.1% | viability, T/C (second compound 10 µM, first compound 0.0316 µM) 86.9% | viability, T/C (second compound 10 µM, first compound 0.1 µM) 89.4% | viability, T/C (second compound 10 µM, first compound 0.316 µM) 90.4% | viability, T/C (second compound 10 µM, first compound 1 µM) 73.8% | viability, T/C (second compound 10 µM, first compound 3.16 µM) 52.1% | viability, T/C (second compound 10 µM, first compound 10 µM) 34.4% | viability, T/C (second compound 31.6 µM, first compound 0.0316 µM) 98.5% | viability, T/C (second compound 31.6 µM, first compound 0.1 µM) 91.8% | viability, T/C (second compound 31.6 µM, first compound 0.316 µM) 91% | viability, T/C (second compound 31.6 µM, first compound 1 µM) 67.5% | viability, T/C (second compound 31.6 µM, first compound 3.16 µM) 54.2% | viability, T/C (second compound 31.6 µM, first compound 10 µM) 36.7% | viability, T/C (second compound 100 µM, first compound 0.0316 µM) 111% | viability, T/C (second compound 100 µM, first compound 0.1 µM) 107% | viability, T/C (second compound 100 µM, first compound 0.316 µM) 95.8% | viability, T/C (second compound 100 µM, first compound 1 µM) 75.9% | viability, T/C (second compound 100 µM, first compound 3.16 µM) 56.1% | viability, T/C (second compound 100 µM, first compound 10 µM) 38.1%
3.43 µM: IC50 (curve of first compound, second compound 10 µM)
